From patent US9393221B2, “Methods and compounds for reducing intracellular lipid storage” (THE GENERAL HOSPITAL CORPORATION, priority 2011, dated 2016) come the findings set out here.

Counter-ions that a name gives are not always drawn.

In this experiment the test system is ATGL-KO iPSCs. Put plainly: High throughput iPSC chemical screening, Oil Red O (ORO) lipid accumulation. Note: test concentration or dose not given here. To be noted: normalized ORO level vs DMSO-treated cells; compound present during 7 days differentiation, 96-well; negative = decrease in lipid accumulation. It is filed as cell-based, mouse.
On to `CN1CCCCC1CCN1c2ccccc2Sc2ccc([S+](C)[O-])cc21` (stereo not drawn) [Mesoridazine besylate], for which the Z-score is given as −0.5525.

As to Spiramycin, the Z-score is on record as −1.0612. The result for `CCCCNC(=O)NS(=O)(=O)c1ccc(C)cc1` [Tolbutamide] reads −0.8086; that for `Cn1cnc([N+](=O)[O-])c1Sc1ncnc2nc[nH]c12` [Azathioprine], 17.2224; that for `CC(C)C(=O)Nc1ccc([N+](=O)[O-])c(C(F)(F)F)c1` [Flutamide], −0.5472. The result for `NCc1ccccc1CC(=O)N[C@@H]1C(=O)N2C(C(=O)O)=C(CSc3nnnn3CC(=O)O)CS[C@H]12` [Ceforanide] reads 1.929; that for `CCN(CC)CCNC(=O)c1cc(S(C)(=O)=O)ccc1OC` [Tiapride hydrochloride], −1.0178; that for `C[C@@H]1C[C@H]2[C@@H]3C[C@H](F)C4=CC(=O)C=C[C@]4(C)[C@@]3(Cl)[C@@H](O)C[C@]2(C)[C@H]1C(=O)COC(=O)C(C)(C)C` [Clocortolone pivalate], 1.217. The result for `O=C(CCCN1CCC(O)(c2ccc(Cl)cc2)CC1)c1ccc(F)cc1` [Haloperidol] reads −1.1776; that for `CC(C)NCC(O)COc1cccc2ccccc12` (stereo not drawn) [Propranolol hydrochloride], 2.05. Turning to `O=P1(NCCCl)OCCCN1CCCl` (stereo not drawn) [Ifosfamide], the Z-score was −1.424. For `CCOC(=O)c1ccc(OC(=O)CCCCCN=C(N)N)cc1.CS(=O)(=O)O` [Gabexate mesilate] the value was −1.4041; for `CC[N+](CC)(CC(=O)Nc1c(C)cccc1C)Cc1ccccc1` [Denatonium benzoate], −0.1971; for `CCN1C[C@]2(COC)CC[C@H](OC)[C@]34C5C[C@@H]6[C@@H](OC)C[C@@]7(OCO[C@@]7(C13)[C@@H](O)C24)C5[C@H]6OC` (stereo partly drawn) [Delcorine], −1.4115.

Regarding `C=CC[N@@+]12CC[C@@]34c5ccccc5N5/C=C6/[C@H]7C[C@H]8[C@@]9(CC[N@@+]8(CC=C)C/C7=C/CO)c7ccccc7N(/C=C(/[C@@H](C[C@@H]31)/C(=C\CO)C2)[C@H]54)[C@@H]69.[Cl-].[Cl-]` [Alcuronium chloride], the Z-score was determined as 0.354. For `COc1ccc2c(c1OC)CN1CCc3cc4c(cc3C1C2)OCO4` (stereo not drawn) [(d,l)-Tetrahydroberberine] the value was 3.2577; for `CC(C)(C)NCC(O)c1ccc(O)c(CO)c1` (stereo not drawn) [Salbutamol], −0.9959. In the case of `COc1ccc(OC)c(C(O)CNC(=O)CN)c1` (stereo not drawn) [Midodrine hydrochloride], the Z-score is recorded as −0.5001. For `CC[C@@]1([C@@H]2O[C@@H]([C@H]3O[C@@](O)(CO)[C@H](C)C[C@@H]3C)C[C@@H]2C)CC[C@H]([C@]2(C)CC[C@]3(C[C@H](O)[C@@H](C)[C@@H]([C@@H](C)[C@@H](OC)[C@H](C)C(=O)O)O3)O2)O1` [Monensin sodium salt] the value was 18.1768; for `COc1ccc(C[C@H]2NC[C@H](O)[C@H]2OC(C)=O)cc1` [Anisomycin], 30.3787; for `C[N+]1(C)CCOC(O)(c2ccc(-c3ccc(C4(O)C[N+](C)(C)CCO4)cc3)cc2)C1.[Br-].[Br-]` (stereo not drawn) [Hemicholinium bromide], 2.91. The result for `N=C(N)c1ccc(OCCCCCOc2ccc(C(=N)N)cc2)cc1` [Pentamidine isethionate] reads 14.9126. In the case of `O=C(OCC(O)CO)c1ccccc1Nc1ccnc2cc(Cl)ccc12` (stereo not drawn) [Glafenine hydrochloride], the Z-score is on record as −0.4014. The result for `O=c1oc2ccccc2c(O)c1Cc1c(O)c2ccccc2oc1=O` [Dicumarol] reads 1.966.

As for Vitamin K2, the Z-score turned out to be 0.6129. For the compound `NS(=O)(=O)c1cc2c(cc1Cl)N=CNS2(=O)=O` [Chlorothiazide], the Z-score was −0.1987. The result for `C[C@]12CC[C@H]3[C@@H](CCC4=CC(=O)CC[C@@]43C)[C@@H]1CC[C@@H]2C(=O)CO` [Deoxycorticosterone] reads 0.6523.
